Target: T1, TNF-α (Homo sapiens, UniProt P01375)
T1 construct: Human TNF-α recombinant protein (Peprotech)
Assay: SPR (Biacore T200, hTNF-α immobilized on CM5); BLI gave KD […]; TNF-α-TNFR1 ELISA IC50 […]
Assay type: binding

T1 sequence (P01375 77-233): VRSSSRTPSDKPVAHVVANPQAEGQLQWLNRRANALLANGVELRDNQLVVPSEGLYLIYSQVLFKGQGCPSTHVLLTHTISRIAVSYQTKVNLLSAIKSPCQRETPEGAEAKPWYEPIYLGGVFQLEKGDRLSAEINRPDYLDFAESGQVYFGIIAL

Cc1cc(O)c2c(c1)C(=O)c1cc(O)cc(O)c1C2=O [emodin, 1,3,8-trihydroxy-6-methylanthraquinone]
Kd: ~26.5 µM
